Patent US20120302573A1, “METHODS OF INHIBITING PRO MATRIX METALLOPROTEINASE ACTIVATION” (priority 2011, published 2012)
Counter-ions that a name gives are not always drawn.

Key:
[1] = biological target: T1, proMMP9(20-445;ΔFnII) (SEQ ID NO:6) (Homo sapiens, UniProt P14780, DEL216-390); assay: ThermoFluor binding assay with proMMP9(20-445;ΔFnII)
T1 construct: amino acid pairs including: 29-215/391-444, 67-215/391-444, and 20-215/391-445, respectively; start methionine (N); made in house; host or cells: E. coli BL21(DE3) RIL
T1 sequence (P14780 with tags, fused parts or gaps DEL216-390): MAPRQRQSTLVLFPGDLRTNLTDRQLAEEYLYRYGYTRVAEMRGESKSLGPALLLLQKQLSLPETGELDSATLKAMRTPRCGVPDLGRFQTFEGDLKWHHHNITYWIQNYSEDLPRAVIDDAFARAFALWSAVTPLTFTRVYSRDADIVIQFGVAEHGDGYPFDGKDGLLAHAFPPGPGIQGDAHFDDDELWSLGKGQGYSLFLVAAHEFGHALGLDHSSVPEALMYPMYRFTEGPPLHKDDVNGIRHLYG
Description: (§1) The experiments were carried out using instruments available from Johnson & Johnson Pharmaceutical Research & Development, LLC. TF dye used in all experiments was […] (1,8-ANS) (Invitrogen: A-47).
(§2) Columns 12 and 24 were used as DMSO reference and contained no compound. […] Following compound dispense, protein and dye solutions were added to achieve the final assay volume of 3 μL.
(§3) Assay plates were robotically loaded onto a thermostatically controlled PCR-type thermal block and then heated from 40 to 90° C. at a ramp-rate of 1° C./min for all experiments. Fluorescence was measured by continuous illumination with UV light (Hamamatsu LC6) supplied via fiber optics and filtered through a band-pass filter (380-400 nm; >6 OD cutoff). Fluorescence emission of the entire 384-well plate was detected by measuring light intensity using a CCD camera (Sensys, Roper Scientific) filtered to detect 500±25 nm, resulting in simultaneous and independent readings of all 384 wells.
(§4) Thermodynamic parameters necessary for fitting compound binding for each proMMP were estimated by differential scanning calorimetry (DSC) and from ThermoFluor® data. The heat capacity of unfolding for each protein was estimated from the molecular weight and from ThermoFluor® dosing data.
The protein sample preparations included a desalting buffer exchange step via a PD-10 gravity column (GE Healthcare).

[2] = biological target: T2, proMMP9(67-444;ΔFnII) (SEQ ID NO:5) (Homo sapiens, UniProt P14780, DEL216-390); assay: ThermoFluor binding assay with proMMP9(67-444;ΔFnII)
T2 construct: amino acid pairs including: 29-215/391-444, 67-215/391-444, and 20-215/391-445, respectively; start methionine (N); made in house; host or cells: E. coli BL21(DE3) RIL
T2 sequence (P14780 with tags, fused parts or gaps DEL216-390): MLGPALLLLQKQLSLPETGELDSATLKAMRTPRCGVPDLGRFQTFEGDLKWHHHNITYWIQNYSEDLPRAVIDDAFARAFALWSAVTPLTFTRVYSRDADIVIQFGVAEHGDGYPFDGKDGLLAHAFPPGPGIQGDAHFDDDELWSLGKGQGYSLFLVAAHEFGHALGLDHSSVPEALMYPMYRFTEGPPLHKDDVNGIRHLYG
Description: as §1, §2, §3, §4
The protein sample preparations had to include a desalting buffer exchange step via a PD-10 gravity column (GE Healthcare).

[3] = biological target: T3, proMMP13(1-268) (SEQ ID NO:7) (Homo sapiens, UniProt P45452); assay: ThermoFluor binding assay with proMMP13(1-268)
T3 construct: 6x-histidine tag (C); made in house; host or cells: HEK293
Description: The ThermoFluor® (TF) assay is a 384-well plate-based binding assay that measures thermal stability of proteins (Biomol Screen 2001, 6, 429-40; Biochemistry 2005, 44, 5258-66). The experiments were carried out using instruments available from Johnson & Johnson Pharmaceutical Research & Development, LLC. TF dye used in all experiments was […] (1,8-ANS) (Invitrogen: A-47).
Compounds were arranged in a pre-dispensed plate (Greiner Bio-one: 781280), wherein compounds were serially diluted in 100% DMSO across 11 columns within a series. Columns 12 and 24 were used as DMSO reference and contained no compound. For multiple compound concentration-response experiments, the compound aliquots ([…]) were robotically predispensed directly into black 384-well polypropylene PCR microplates (Abgene: TF-0384/k) using a Cartesian Hummingbird liquid handler (DigiLab, Holliston, Mass.). Following compound dispense, protein and dye solutions were added to achieve the final assay volume of 3 μL. The assay solutions were overlayed with 1 μL of silicone oil (Fluka, type DC 200: 85411) to prevent evaporation.
as §3, with “wells. A single image with 20-sec exposure time was collected at each temperature, and the sum of the pixel intensity in a given area of the assay plate was recorded vs temperature and fit to standard equations to yield the Tm (J Biomol Screen 2001, 6, 429-40).” for “wells.”
as §4
The proMMP13(1-268) (SEQ ID NO:7) protein sample preparations included a desalting buffer exchange step via a PD-10 gravity column (GE Healthcare). The desalting buffer exchange was performed prior to diluting the protein to the final assay concentration of 3.5 μM. The concentration of proMMP13(1-268) (SEQ ID NO:7) was estimated spectrophotometrically based on a calculated extinction coefficient of ε280=37000 M^−1 cm^−1, a calculated molecular weight of 30.8 kDa, and calculated pI of 5.33. ThermoFluor® reference conditions were defined as follows: 100 μg/mL proMMP13(1-268) (SEQ ID NO:7), 25 μM 1,8-ANS, pH 7.0 Buffer (50 mM HEPES pH 7.0, 100 mM NaCl, 0.001% Tween-20, 2.5 mM MgCl2, 300 μM CaCl2). The thermodynamic parameters for proMMP13(1-268) (SEQ ID NO:7) are as follows: Tm (° C.)=67 (+/−0.1), ΔUH(Tm) (cal mol^−1)=107000(+/−5000), ΔUS(Tm) (cal mol^−1 K^−1)=318, ΔUCp (cal mol^−1 K^−1)=2600.

[4] = biological target: full-length proMMP9(1-707) activation by catalytic MMP3 (Homo sapiens, UniProt P14780, R574P); assay: ProMMP9/MMP3 DQ Gelatin Activation Assay;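 further: readout is fluorescence of quenched fluorescein gelatin cut by activated MMP9, 30 min activation at 37 °C, inhibition relative to DMSO-only controls with EDTA as blank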; format: biochemical; design: made in house; host or cells: COS-1 (proMMP9); E. coli (MMP3); details: proMMP9 from COS-1 cells; read-out: ProMMP9/MMP3 DQ gel, IC50
full-length proMMP9(1-707) activation by catalytic MMP3, sequence (P14780 20-707 R574P): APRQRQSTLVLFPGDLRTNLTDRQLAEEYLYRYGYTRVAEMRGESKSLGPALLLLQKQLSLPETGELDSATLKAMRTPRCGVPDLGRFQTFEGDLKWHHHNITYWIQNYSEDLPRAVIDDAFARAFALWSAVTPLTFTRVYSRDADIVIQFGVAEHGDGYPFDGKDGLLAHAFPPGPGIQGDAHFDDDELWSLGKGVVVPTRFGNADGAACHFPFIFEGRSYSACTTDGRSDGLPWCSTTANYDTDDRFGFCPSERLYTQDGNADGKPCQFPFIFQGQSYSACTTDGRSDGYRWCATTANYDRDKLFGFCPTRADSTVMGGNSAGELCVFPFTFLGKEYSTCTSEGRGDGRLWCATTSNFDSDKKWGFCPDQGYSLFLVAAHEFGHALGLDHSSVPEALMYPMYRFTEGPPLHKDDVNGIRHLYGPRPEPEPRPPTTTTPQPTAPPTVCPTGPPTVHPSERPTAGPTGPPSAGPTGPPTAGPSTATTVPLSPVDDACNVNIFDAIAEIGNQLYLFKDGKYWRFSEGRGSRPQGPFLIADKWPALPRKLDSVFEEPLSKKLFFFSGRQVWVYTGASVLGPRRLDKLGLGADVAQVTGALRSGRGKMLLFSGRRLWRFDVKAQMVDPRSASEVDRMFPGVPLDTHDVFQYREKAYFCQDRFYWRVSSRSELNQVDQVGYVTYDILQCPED
Description: Compounds were assessed for inhibition of proMMP9 activation by catalytic MMP3 using a quenched fluorescein gelatin substrate (DQ gelatin, Invitrogen D12054) that fluoresces upon cleavage by activated MMP9. The assay buffer employed was 50 mM Hepes, pH 7.5, 10 mM CaCl2, 0.05% Brij-35. DMSO was included at a final concentration of 0.2%, arising from the test compound addition. […] Test compounds in DMSO were diluted 250-fold in assay buffer at 4× the final concentration. The reaction volume was 12 μL, and all reactions were conducted in triplicate. […] The plate was sealed and incubated for 30 min at 37° C. […] Immediately following the 30 min incubation, 4 μL of 40 μg/ml DQ gelatin substrate was added (freshly diluted in assay buffer), and incubated for 10 min at room temperature. […] Reactivity of residual MMP3 towards DQ gelatin was minimal under these conditions. Percent inhibition of test compounds were determined from suitable positive (DMSO only in assay buffer) and negative (EDTA added prior to reaction initiation) controls. Plots of % inhibition vs. test compound concentration were fit to a four-parameter logistics equation (GraphPad Prism® software) for determination of IC50.

Row | SMILES | Kd [1] [µM] | Kd [2] [µM] | Kd [3] [µM] | IC50 [4] [µM]
1 | Cc1nc(N)sc1-c1csc(Nc2cccc(C(N)=O)c2)n1 [Example 8, 3-(2′-Amino-4′-methyl-[4,5′]bithiazolyl-2-ylamino)-benzamide.HBr] | 10.8 | 30.2 | 26.9 | –
2 | CCc1nc(N)sc1-c1nc(Nc2ccccc2OC)sc1C [Example 11, 4′-Ethyl-N^2-(2-methoxy-phenyl)-5-methyl-[4,5′]bithiazolyl-2,2′-diamine] | > 95 | 19.9 | 58.9 | –
3 | CCc1nc(N)sc1-c1nc(Nc2cc(Cl)ccc2OC)sc1C [Example 17, N^2-(5-Chloro-2-methoxy-phenyl)-4′-ethyl-5-methyl-[4,5′]bithiazolyl-2,2′-diamine] | 15.6 | 3.99 | 10.7 | –
4 | COc1ccc(-c2csc(Nc3ccccc3OC)n2)cn1 [Example 28, (2-Methoxy-phenyl)-[4-(6-methoxy-pyridin-3-yl)-thiazol-2-yl]-amine.TFA] | > 65 | 22.6 | > 95 | 15.6
5 | COc1ccccc1Nc1nc(-c2ccc(-c3ccccc3)s2)cs1 [Example 43, (2-Methoxy-phenyl)-[4-(5-phenyl-thiophen-2-yl)-thiazol-2-yl]-amine.TFA] | 76.7 | 13.1 | 20.4 | > 20
6 | CCOc1ccccc1Nc1nc(-c2c(C)nc3ncccn23)cs1 [Example 52, (2-Ethoxy-phenyl)-[4-(2-methyl-imidazo[1,2-a]pyrimidin-3-yl)-thiazol-2-yl]-amine] | 7.27 | 9.09 | 13.2 | 3.3
7 | CCOc1ccccc1Nc1nc(-c2cccnc2)cs1 [Example 53, (2-Ethoxy-phenyl)-(4-pyridin-3-yl-thiazol-2-yl)-amine] | 28.6 | 15.1 | > 95 | 4.7
8 | COc1ccccc1Nc1nc(-c2cccnc2)cs1 [Example 55, (2-Methoxy-phenyl)-(4-pyridin-3-yl-thiazol-2-yl)-amine] | > 95 | 22.5 | > 95 | 13
9 | COc1ccccc1Nc1nc(-c2ccncc2)cs1 [Example 60, (2-Methoxy-phenyl)-(4-pyridin-4-yl-thiazol-2-yl)-amine] | 16.8 | 11.3 | 44.4 | 5.5

Continued, values first:

Row | Kd [1] [µM] | Kd [2] [µM] | Kd [3] [µM] | IC50 [4] [µM] | SMILES
10 | 12.9 | 8.84 | 44.6 | – | COc1c(Cl)cccc1Nc1nc(-c2sc(N)nc2C)cs1 [Example 7, N^2-(3-Chloro-2-methoxy-phenyl)-4′-methyl-[4,5′]bithiazolyl-2,2′-diamine.HBr]
11 | 9.61 | 3.67 | 55.9 | – | COc1ccccc1Nc1nc(-c2cnc(N)s2)cs1 [Example 10, N^2-(2-Methoxy-phenyl)-[4,5′]bithiazolyl-2,2′-diamine.HBr]
12 | 12.3 | 2.32 | 44.2 | – | COc1ccccc1Nc1nc(-c2sc(N)nc2C(F)(F)F)cs1 [Example 22, N^2-(2-Methoxy-phenyl)-4′-trifluoromethyl-[4,5′]bithiazolyl-2,2′-diamine.TFA]
13 | > 95 | > 95 | 4.78 | 13.8 | COc1ccccc1Nc1nc(-c2sc(-c3cnccn3)nc2C)cs1 [Example 26, (2-Methoxy-phenyl)-(4′-methyl-2′-pyrazin-2-yl-[4,5′]bithiazolyl-2-yl)-amine.TFA]
14 | > 95 | 13.8 | 42 | – | COc1ccccc1Nc1nc(-c2cc(C)ccn2)cs1 [Example 30, (2-Methoxy-phenyl)-[4-(4-methyl-pyridin-2-yl)-thiazol-2-yl]-amine.TFA]
15 | 5.16 | 4.48 | > 95 | > 20 | COc1ccccc1Nc1nc(-c2sc(NC(C)C)nc2C)cs1 [Example 37, N^2′-Isopropyl-N^2-(2-methoxy-phenyl)-4′-methyl-[4,5′]bithiazolyl-2,2′-diamine.HCl]
16 | > 95 | 44.7 | > 95 | 11.9 | COc1ccccc1Nc1nc(-c2oc(C)nc2C)cs1 [Example 44, [4-(2,4-Dimethyl-oxazol-5-yl)-thiazol-2-yl]-(2-methoxy-phenyl)-amine.TFA]
17 | 65.2 | 36.7 | 16 | 8.6 | COc1ccccc1Nc1nc(-c2c(C)nc3ccccn23)cs1 [Example 46, (2-Methoxy-phenyl)-[4-(2-methyl-imidazo[1,2-a]pyridin-3-yl)-thiazol-2-yl]-amine]
18 | > 90 | 40.9 | > 95 | 5.2 | CCOc1ccccc1Nc1nc(-c2sc(NC(=O)CC)nc2C)cs1 [Example 47, N-[2-(2-Ethoxy-phenylamino)-4′-methyl-[4,5′]bithiazolyl-2′-yl]-propionamide]
19 | 13.4 | 3.01 | > 95 | 2.6 | CCC(=O)Nc1nc(C)c(-c2csc(Nc3ccccc3OC)n2)s1 [Example 58, N-[2-(2-Methoxy-phenylamino)-4′-methyl-[4,5′]bithiazolyl-2′-yl]-propionamide]
20 | 5.07 | 1.06 | 21 | 1.6 | COc1ccc(OC)c(Nc2nc(-c3sc(NC(C)=O)nc3C)cs2)c1 [Example 61, N-[2-(2,5-Dimethoxy-phenylamino)-4′-methyl-[4,5′]bithiazolyl-2′-yl]-acetamide]
21 | 8.29 | 2.46 | 47.2 | 3.4 | CCc1ccccc1Nc1nc(-c2sc(NC(C)=O)nc2C)cs1 [Example 62, N-[2-(2-Ethyl-phenylamino)-4′-methyl-[4,5′]bithiazolyl-2′-yl]-acetamide]
